Data set [1] in a line: Plasma protein binding (free fraction). Type of data set: in vitro ADME. The following applies: mouse, rat, and human plasma. The method, then:
The general procedure for lipophilicity measurement was previously described, 4 with minor modification in this work. Briefly, the measurement of LogD value was carried out by mixing [11C]27 (radiochemical purity > 99%) with n-octanol (3.0 g) and PBS (0.1 M, 3.0 g) in a test tube. Both n-octanol and PBS were pre-saturated with each other prior to use. The tube was first vortexed for 5 min, followed by centrifugation (~3500-4000 rpm) for an additional 5 min. PBS and n-octanol were aliquoted, weighed and the radioactivity in each component was measured using a Cobra Model 5002/5003 gamma counter. The LogD was determined by Log [ratio of radioactivity in n-octanol and aqueous layer, respectively] (n = […]
For the evaluation of plasma protein binding,5 55.5 MBq radiotracer was added to 150 μL of plasma, which was pre-incubated under 37 °C for 5 min (n = 3). The samples were incubated at 37 °C for 10 min. To each 150 μL of radiotracer-plasma solution was added 300 μL of ice-cold PBS and all samples were briefly vortexed. […] The radioactivity (in Becquerel) was measured in the protein fraction (Aprotein), filtrate, and filter unit using a gamma counter (Wizard, PerkinElmer), Atotal was calculated as the sum of radioactivity, and the free fraction f u was calculated according to the following eq.: f u = 1-

A short description of data set [2]: Pharmacokinetics in plasma and brain (NeuroPK study). The format is in vivo, Sprague-Dawley rats. The method, then: Pharmacokinetics in Plasma and Brain (NeuroPK study)
Nine male wildtype Sprague Dawley rats were administered a bolus injection containing compound 27 in saline (1 mg/kg, 2 mL/kg) via the tail vein. Blood samples (approximately 120 µL) were harvested under light isoflurane anesthesia from a set of three rats at 0.08, 0.25, and 1 hr. Blood and brain samples were collected at 5, […] and 60 min. Following centrifugation of blood samples, the resulting plasma supernatant was stored at -70 ± 10 °C till further analysis. Brain samples were homogenized using ice-cold phosphate buffer saline (pH 7.4) and homogenates were stored below -70 ± 10 °C until further analysis. Total homogenate volume was three times the brain weight. Plasma and brain samples were quantified by LC-MS/MS method. The plasma and brain concentration-time data of compound 27 was used for pharmacokinetic analysis. […]

The target in the next data set is hERG channel (Homo sapiens, UniProt Q12809). Kind of data set: In vitro safety: hERG channel inhibition. The format is biochemical. Here is the method:
time-dependent manner for 80 min with an acquisition interval of 2 min. IC50 curves were
plotted using a non-linear regression model with Graphpad Prism 6. The latter method was
further applied to assess the inhibitory constant of compound 27 to the hERG channel. […]

In the next data set the target is T1, PDE7A (Homo sapiens, UniProt Q13946).
T1 construct: purchased Eurofins Panlabs Discovery Services (contract assay)
T1 sequence (Q13946 whole entry): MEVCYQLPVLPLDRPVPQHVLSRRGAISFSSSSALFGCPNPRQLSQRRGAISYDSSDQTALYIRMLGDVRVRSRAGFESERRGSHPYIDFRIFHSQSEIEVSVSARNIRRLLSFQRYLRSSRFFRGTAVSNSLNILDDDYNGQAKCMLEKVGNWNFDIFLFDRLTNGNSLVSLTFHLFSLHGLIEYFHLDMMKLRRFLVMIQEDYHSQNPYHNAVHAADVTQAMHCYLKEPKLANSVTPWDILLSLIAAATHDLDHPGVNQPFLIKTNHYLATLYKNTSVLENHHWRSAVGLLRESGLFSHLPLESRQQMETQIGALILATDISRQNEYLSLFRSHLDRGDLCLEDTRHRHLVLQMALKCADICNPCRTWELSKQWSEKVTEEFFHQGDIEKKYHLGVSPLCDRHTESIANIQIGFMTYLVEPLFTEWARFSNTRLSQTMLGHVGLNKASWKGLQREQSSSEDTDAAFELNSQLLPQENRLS
Kind of data set: In vitro inhibitory assay of PDE7A activity. Type of data set: biochemical. The following applies: human recombinant enzyme; read-out: inhibitory constant (IC50) toward PDE7A. Here is the method:
protein-ligand complex were saved and were then loaded into Schrödinger Maestro to generate the ligand interaction plot.
In vitro inhibitory assay to PDE7 of compound 27 and selectivity to other PDEs Functional activity of target compound 27 for inhibition of PDE7A activity and the selectivity over other PDE isozymes (PDE1A/B/C, 2A, 3A/B, 4A/B/C/D, 5A, 8A, 9A, and 10A) were evaluated by Eurofins Panlabs Discovery Services and Reaction Biology Corp., respectively. Human recombinant enzymes were used for the assays. The inhibitory assays were performed and calculated in duplicate at 3 µM. If the inhibition percentage was less than 50%, the assay for half-maximal inhibitory concentration (IC50) value was conducted in […]
CYP450 isoform metabolism and in vitro safety profiling
The inhibitory constant of compound 26 toward cytochrome P450-dependent metabolic pathways was determined for individual CYP isoform (CYP1A2, CYP2C9, CYP2C19, CYP2D6, and CYP3A4). Reference inhibitors were included as positive controls. A 10 µM solution of compound 27 was used for initial screening. If the inhibition percentage was less than 50%, the experiment was stopped. If the inhibition potency was greater than 50%, the gradient concentrations of compound 27 were used for IC 50 determination. The P450 reactions were detected at Ext/Em: 405 nm/460 nm (530 nm/605 nm for CYP2C9) in a […]

In data set [3] the target is T2, HEK293-PDE7B recombinant cell lines (Homo sapiens, UniProt Q9NP56).
T2 construct: host or cells: HEK293
T2 sequence (Q9NP56 whole entry): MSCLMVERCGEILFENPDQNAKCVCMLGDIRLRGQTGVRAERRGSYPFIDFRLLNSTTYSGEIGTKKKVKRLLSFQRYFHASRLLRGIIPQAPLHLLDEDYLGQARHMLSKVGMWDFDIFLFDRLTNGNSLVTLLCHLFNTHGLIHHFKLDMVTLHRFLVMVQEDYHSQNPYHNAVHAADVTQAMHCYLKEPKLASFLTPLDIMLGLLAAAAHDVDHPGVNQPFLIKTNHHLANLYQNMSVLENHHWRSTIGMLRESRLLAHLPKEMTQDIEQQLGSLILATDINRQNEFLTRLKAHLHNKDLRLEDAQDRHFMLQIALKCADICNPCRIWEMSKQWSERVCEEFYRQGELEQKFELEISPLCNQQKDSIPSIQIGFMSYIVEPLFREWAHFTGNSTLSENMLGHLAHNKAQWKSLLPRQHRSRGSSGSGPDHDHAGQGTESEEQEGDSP
Kind of data set: In vitro cell uptake and blocking of [11C]27. The format is cell-based. The following applies: blocker 1 μM, 60 min incubation, PDE7B overexpressing HEK293 cells, n = 4. Here is the method:
Control study: HEK293-PDE7B Recombinant cells (catalog#60412, BPS Bioscience) and HEK293 control cells (catalog# CRL-1573, ATCC) – both in logarithmic growth phase – were plated in a 24 well plate (2 × 10^5 cells per well) and cultured overnight. After 24 hr, each well was added 2 μCi of [ 11C]27, and incubated at 37 °C for 30 min or 60 min. The radioactive medium was aspirated and collected in a tube. The residual cells were washed twice with PBS, and then collected in the same tube. The cells were lysed with 1 N NaOH (200 μL) and washed twice with PBS, all the resulting solutions were collected in one tube.
The radioactivity in the collected supernatant and cell lysis buffer (600 μL/tube) was measured using a Cobra Model 5002/5003 gamma counter, respectively.
Blocking study: HEK293-PDE7B cells in logarithmic growth phase were plated in 24 well plate (2 × 10^5 cells per well) and cultured overnight. After 24 h, each well was added 2 μCi of [11C]27 with or without unlabeled reference compound 27 or BRL50481, respectively. The resulting culture medium contained 2 μCi of [ 11C]27, 1 µM of unlabeled compound 27 or BRL50481, and 5% DMSO. Cells were incubated at 37 °C for 60 min and samples were collected as described for the control study. The cell uptake was calculated according to the following eq.: cell uptake% = A lysis buffer/(A lysis buffer+Asupernate) (n = 4)

[4] abbreviates: 5 min, single iv 1 mg/kg, male Sprague-Dawley rats, n = 3, 1 mg/kg.

Where two headings read alike, the source gives them in different places. A value given as a limit tells only on which side of the number the result lay.

A word on the fraction unbound: it is the share of the substance not bound to proteins or other matrix. The IC50 is the concentration needed to halve the response being measured.

hERG channel, sequence (Q12809 whole entry): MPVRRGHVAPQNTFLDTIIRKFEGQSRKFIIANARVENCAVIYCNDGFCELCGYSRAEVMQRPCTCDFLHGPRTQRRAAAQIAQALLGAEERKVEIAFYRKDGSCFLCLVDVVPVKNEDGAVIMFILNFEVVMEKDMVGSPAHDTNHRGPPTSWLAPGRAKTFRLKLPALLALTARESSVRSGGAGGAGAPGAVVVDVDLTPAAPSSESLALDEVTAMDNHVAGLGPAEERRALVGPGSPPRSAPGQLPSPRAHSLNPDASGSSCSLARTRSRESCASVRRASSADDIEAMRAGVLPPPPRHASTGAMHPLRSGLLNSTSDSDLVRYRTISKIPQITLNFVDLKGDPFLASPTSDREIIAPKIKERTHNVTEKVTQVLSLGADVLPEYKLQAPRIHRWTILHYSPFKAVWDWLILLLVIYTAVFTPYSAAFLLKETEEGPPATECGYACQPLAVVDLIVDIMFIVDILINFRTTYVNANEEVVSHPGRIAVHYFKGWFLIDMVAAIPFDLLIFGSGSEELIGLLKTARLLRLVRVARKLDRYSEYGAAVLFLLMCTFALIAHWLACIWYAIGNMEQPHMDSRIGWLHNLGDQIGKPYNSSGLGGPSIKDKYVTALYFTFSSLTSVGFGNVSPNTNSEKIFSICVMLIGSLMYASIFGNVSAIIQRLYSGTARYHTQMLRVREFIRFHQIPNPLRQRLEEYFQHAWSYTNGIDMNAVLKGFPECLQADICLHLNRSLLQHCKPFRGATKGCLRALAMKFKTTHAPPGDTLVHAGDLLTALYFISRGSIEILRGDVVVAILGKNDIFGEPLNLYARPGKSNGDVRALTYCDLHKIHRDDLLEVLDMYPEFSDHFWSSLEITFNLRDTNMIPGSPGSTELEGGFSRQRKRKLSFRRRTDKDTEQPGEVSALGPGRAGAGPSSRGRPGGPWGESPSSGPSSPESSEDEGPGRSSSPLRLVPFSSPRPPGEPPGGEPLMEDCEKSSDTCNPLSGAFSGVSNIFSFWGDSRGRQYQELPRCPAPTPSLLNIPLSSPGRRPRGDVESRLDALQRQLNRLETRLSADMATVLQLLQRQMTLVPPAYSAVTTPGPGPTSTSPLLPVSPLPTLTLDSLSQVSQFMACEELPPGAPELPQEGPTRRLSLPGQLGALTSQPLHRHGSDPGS

With `COc1ccc(Cl)c2c1C1(CCCCC1)NC(=O)N2` [Compound 27], in data set [1], the free fraction (fraction unbound) at 10 min was at least 0.01. Further, in data set [2] (setting [4]), the brain concentration mean is recorded as 3316.17 ng/g. Also, the plasma concentration mean in data set [2] (setting [4]) came out at 712.49 ng/mL; in data set [2] (60 min, single iv 1 mg/kg, male Sprague-Dawley rats, n = 3, 1 mg/kg) it was 39.39 ng/mL. For the same compound, the “brain-to-plasma ratios (Kp)” value in data set [2] (all measured time points (5-60 min), SD rats, 1 mg/kg iv, 1 mg/kg) is on record as over 3. In addition, in data set [2] (last measured time point (60 min), relative to 5 min peak, rats), the “fraction of the compound remaining in the brain” value is on record as “less than 5%”. In addition, in data set [2] (male, Sprague-Dawley, rat, brain, iv, 1 mg/kg, 5 min, single iv 1 mg/kg, male Sprague-Dawley rats, n = 3, read-out: Kp (brain-to-plasma ratio) mean), the Kp at 5 min amounted to 4.76. For the same compound, the Kp at 25 min in data set [2] (male, Sprague-Dawley, rat, brain, iv, 1 mg/kg, 25 min, single iv 1 mg/kg, male Sprague-Dawley rats, n = 3, read-out: Kp (brain-to-plasma ratio) mean) came out at 4. For the same compound, in data set [2] (male, Sprague-Dawley, rat, brain, iv, 1 mg/kg, 60 min, single iv 1 mg/kg, male Sprague-Dawley rats, n = 3, read-out: Kp (brain-to-plasma ratio) mean), the Kp at 1 h was 3.35. Moreover, the Kp in data set [2] (male, Sprague-Dawley, rat, brain, iv, 1 mg/kg, all measured time points (5-60 min), SD rats, 1 mg/kg iv, read-out: brain-to-plasma ratios (Kp)) lay in the range of 3 to 5. Further, the concentration at 5 min in data set [2] (rat, brain, 5 min, single iv 1 mg/kg, male Sprague-Dawley rats, n = 3, read-out: brain concentration mean) turned out to be 3320 ± 378 ng/g; in data set [2] (rat, plasma, 5 min, single iv 1 mg/kg, male Sprague-Dawley rats, n = 3, read-out: plasma concentration mean), 712 ± 153 ng/mL. Besides, the concentration at 25 min stood at 876 ng/g in data set [2] (rat, brain, 25 min, single iv 1 mg/kg, male Sprague-Dawley rats, n = 3, read-out: brain concentration mean) and 229 ng/mL in data set [2] (rat, plasma, 25 min, single iv 1 mg/kg, male Sprague-Dawley rats, n = 3, read-out: plasma concentration mean). Further, the concentration at 60 min in data set [2] (rat, brain, 60 min, single iv 1 mg/kg, male Sprague-Dawley rats, n = 3, read-out: brain concentration mean) came out at 132 ng/g; in data set [2] (rat, plasma, 60 min, single iv 1 mg/kg, male Sprague-Dawley rats, n = 3, read-out: plasma concentration mean) it was 39.4 ± 4.44 ng/mL. For the same compound, the IC50 at hERG channel is over 100 µM; on PDE7A, 31 nM. The “blockade of [11C]27 cell uptake” value in data set [3] was “ca. 90%”.

For the origin of these results see publication PMC12434536, “Radiosynthesis and Preclinical Evaluation of a Carbon-11 Labeled Phosphodiesterase 7 Inhibitor for PET Neuroimaging” (ACS Medicinal Chemistry Letters, 2025).
